According to patent US20250163048A1 (Tango Therapeutics, Inc., priority 2022, published 2025):
Like-named read-outs stand apart in the source and are kept apart here.

What was measured:
[1] = test system: MTAP-deleted cell line; assay: viability assay for the MTAP-deleted cell line; type: cell-based; settings: Homo sapiens, HAP1, viability assay
[2] = test system: HAP1 MTAP-intact cell line; assay: SDMA in-cell western assay, HAP1 MTAP-intact; settings: Homo sapiens
[3] = test system: HAP1 MTAP-deleted cell line; assay: SDMA in-cell western assay, HAP1 MTAP-deleted; settings: for IC50 / IC90: Homo sapiens; for Hap1 MTAP intact/deleted ratio: IC50 ratio between HAP1 MTAP-intact and HAP1 MTAP-deleted cell line
[4] = HAP1, read-out: Hap1 MTAP intact IC50, SDMA in-cell western, HAP1 MTAP-intact cell line
[5] = HAP1, read-out: Hap1 MTAP deleted IC50, SDMA in-cell western, HAP1 MTAP-deleted cell line
[6] = HAP1, read-out: Hap1 MTAP deleted IC90, SDMA in-cell western, HAP1 MTAP-deleted cell line
[7] = HAP1, read-out: Hap1 MTAP intact IC50, SDMA in-cell western assay, HAP1 MTAP-intact cell line
[8] = HAP1, read-out: Hap1 MTAP deleted IC50, SDMA in-cell western assay, HAP1 MTAP-deleted cell line
[9] = HAP1, read-out: Hap1 MTAP deleted IC90, SDMA in-cell western assay, HAP1 MTAP-deleted cell line

Row | IC50 [2, 4] [nM] | IC50 [3, 5] [nM] | IC90 [3, 6] [nM] | IC50 [2, 7] [nM] | IC50 [3, 8] [nM] | IC90 [3, 9] [nM] | Compound | IC50 [1] [nM] | Hap1 MTAP intact/deleted ratio ([3]; SDMA in-cell western) | IC50 ([2]; HAP1, read-out: Hap1 MTAP intact IC50) [nM] | Hap1 MTAP intact/deleted ratio ([3]; SDMA in-cell western assay)
1 | > 50 | 5 to 50 | > 125 |  |  |  | C[C@H]1CC[C@H]([C@H]2CCCOC2)N(C(=O)C(=O)Nc2cnc(N)c3cn[nH]c23)C1 (mixture of isomers) [Compound 140, N-(4-amino-1H-pyrazolo[4,3-c]pyridin-7-yl)-2-((2R,5S)-5-methyl-2-(rac-(R)-tetrahydro-2H-pyran-3-yl)piperidin-1-yl)-2-oxoacetamide] | 100 to 1000 | A (“A” indicates an IC50 ratio greater than or equal to 30 fold) |  | 
2 | 5 to 50 | < 5 | < 75 |  |  |  | C[C@@H]1CC[C@@H](c2ccc3cnccc3c2)N(C(=O)C(=O)Nc2cnc(N)c3cn[nH]c23)C1 (racemic) [Compound 22, rac-N-(4-amino-1H-pyrazolo[4,3-c]pyridin-7-yl)-2-((2R,5S)-2-(isoquinolin-6-yl)-5-methylpiperidin-1-yl)-2-oxoacetamide] | < 100 | C (“C” indicates an IC50 ratio of less than 15 fold) |  | 
3 | > 50 | < 5 | < 75 |  |  |  | C[C@@H]1CC[C@@H](c2ccnn2C)N(C(=O)C(=O)Nc2cnc(N)c3cn[nH]c23)C1 (racemic) [Compound 115, N-(4-amino-1H-pyrazolo[4,3-c]pyridin-7-yl)-2-(rac-(2S,5R)-5-methyl-2-(1-methyl-1H-pyrazol-5-yl)piperidin-1-yl)-2-oxoacetamide] | < 100 | A (“A” indicates an IC50 ratio greater than or equal to 30 fold) |  | 
4 | > 50 | < 5 | 75 to 125 |  |  |  | CC(Cc1nc2cc([C@H]3CC[C@H](C)CN3C(=O)C(=O)Nc3ccn4ccnc4c3)ccc2s1)N1CCCC1 (mixture of isomers) [Compound 133, N-(imidazo[1,2-a]pyridin-7-yl)-2-((2R,5S)-5-methyl-2-(2-(2-(pyrrolidin-1-yl)propyl)benzo[d]thiazol-5-yl)piperidin-1-yl)-2-oxoacetamide] | < 100 | A (“A” indicates an IC50 ratio greater than or equal to 30 fold) |  | 
5 | > 50 | 5 to 50 | > 125 |  |  |  | C[C@H]1CC[C@H](c2ccc3scnc3c2)N(C(=O)C(=O)Nc2cncc3c(N)n[nH]c23)C1 (racemic) [Compound 139, N-(3-amino-1H-pyrazolo[4,3-c]pyridin-7-yl)-2-oxo-2-[rac-(2R,5S)-2-(1,3-benzothiazol-5-yl)-5-methyl-1-piperidyl]acetamide] | 100 to 1000 | A (“A” indicates an IC50 ratio greater than or equal to 30 fold) |  | 
6 | > 50 | 5 to 50 | 75 to 125 |  |  |  | C[C@H]1CC[C@H](c2ccc3cn(C4CCOC4)nc3c2)N(C(=O)C(=O)Nc2cncc3cn[nH]c23)C1 (mixture of isomers) [Compound 148, 2-oxo-N-(1H-pyrazolo[4,3-c]pyridin-7-yl)-2-[rac-(2R,5S)-5-methyl-2-(2-tetrahydrofuran-3-ylindazol-6-yl)-1-piperidyl]acetamide] | 100 to 1000 | B (“B” indicates an IC50 ratio greater than or equal to 15 fold but lower than 30 fold) |  | 
7 | > 50 | < 5 | < 75 |  |  |  | C[C@@H]1CC[C@@H](c2cc(Cl)cc(Cl)c2)N(C(=O)C(=O)Nc2cnc(N)c3cn[nH]c23)C1 (racemic) [Compound 161, N-(4-amino-1H-pyrazolo[4,3-c]pyridin-7-yl)-2-(rac-(2S,5R)-2-(3,5-dichlorophenyl)-5-methylpiperidin-1-yl)-2-oxoacetamide] | < 100 | A (“A” indicates an IC50 ratio greater than or equal to 30 fold) |  | 
8 | > 50 | < 5 | < 75 |  |  |  | CC1CCC(c2ccc3cn(C4CCN(C)CC4C)nc3c2)N(C(=O)C(=O)Nc2cncc3cn[nH]c23)C1 (racemic) [Compound 173, 2-oxo-N-(1H-pyrazolo[4,3-c]pyridin-7-yl)-2-[rac-(2R,5S)-5-methyl-2-[2-[rac-(3R,4S)-1,3-dimethyl-4-piperidyl]indazol-6-yl]-1-piperidyl]acetamide] | < 100 | A (“A” indicates an IC50 ratio greater than or equal to 30 fold) |  | 
9 | > 50 | < 5 | < 75 |  |  |  | C[C@H]1CC[C@H](c2ccc(F)c(Cl)c2)N(C(=O)C(=O)Nc2cnc(N)c3cn[nH]c23)C1 (racemic) [Compound 184, N-(4-amino-1H-pyrazolo[4,3-c]pyridin-7-yl)-2-(rac-(2S,5R)-2-(3-chloro-4-fluorophenyl)-5-methylpiperidin-1-yl)-2-oxoacetamide] | < 100 | A (“A” indicates an IC50 ratio greater than or equal to 30 fold) |  | 
10 | 5 to 50 | < 5 | < 75 |  |  |  | CCn1ncc2cc([C@H]3CC[C@H](C)CN3C(=O)C(=O)Nc3cnc(N)c4cn[nH]c34)ccc21 (racemic) [Compound 189, N-(4-Amino-1H-pyrazolo[4,3-c]pyridin-7-yl)-2-oxo-2-[rac-(2R,5S)-2-(1-ethylindazol-5-yl)-5-methyl-1-piperidyl]acetamide] | < 100 | C (“C” indicates an IC50 ratio of less than 15 fold) |  | 
11 |  |  |  | 5 to 50 | < 5 | < 75 | C[C@H]1CC[C@H](c2cccc(F)c2)N(C(=O)C(=O)Nc2cnc(N)c3cn[nH]c23)C1 (racemic) [Compound 198, N-(4-Amino-1H-pyrazolo[4,3-c]pyridin-7-yl)-2-oxo-2-[rac-(2R,5S)-2-(3-fluorophenyl)-5-methyl-1-piperidyl]acetamide] | < 100 |  |  | B (“B” indicates an IC50 ratio greater than or equal to 15 fold but lower than 30 fold)
12 |  |  |  | 5 to 50 | < 5 | < 75 | C[C@H]1CC[C@H](c2ccc3c(c2)CCO3)N(C(=O)C(=O)Nc2cnc(N)c3cn[nH]c23)C1 (racemic) [Compound 206, N-(4-Amino-1H-pyrazolo[4,3-c]pyridin-7-yl)-2-oxo-2-[rac-(2R,5S)-2-(2,3-dihydrobenzofuran-5-yl)-5-methyl-1-piperidyl]acetamide] | < 100 |  |  | B (“B” indicates an IC50 ratio greater than or equal to 15 fold but lower than 30 fold)
13 |  |  |  | 5 to 50 | < 5 | < 75 | C[C@H]1CC[C@H](c2ccc3sc(C4CCC(N(C)C)CC4)nc3c2)N(C(=O)C(=O)Nc2cnc(N)c3cn[nH]c23)C1 (mixture of isomers) [Compound 212, N-(4-Amino-1H-pyrazolo[4,3-c]pyridin-7-yl)-2-oxo-2-[rac-(2R,5S)-2-[2-[4-(dimethylamino)cyclohexyl]-1,3-benzothiazol-5-yl]-5-methyl-1-piperidyl]acetamide] | < 100 |  |  | C (“C” indicates an IC50 ratio of less than 15 fold)

Row | Compound | IC50 [2, 4] [nM] | IC50 [3, 5] [nM] | IC90 [3, 6] [nM] | IC50 [2, 7] [nM] | IC50 [3, 8] [nM] | IC90 [3, 9] [nM] | IC50 [1] [nM] | Hap1 MTAP intact/deleted ratio ([3]; SDMA in-cell western) | IC50 ([2]; HAP1, read-out: Hap1 MTAP intact IC50) [nM] | Hap1 MTAP intact/deleted ratio ([3]; SDMA in-cell western assay)
14 | CC1OCc2c(NC(=O)C(=O)N3C[C@@H](C)CC[C@@H]3c3ccc4scnc4c3)cnc(N)c21 (mixture of isomers) [Compound 196, N-(4-amino-3-methyl-1,3-dihydrofuro[3,4-c]pyridin-7-yl)-2-oxo-2-[(2R,5S)-2-(1,3-benzothiazol-5-yl)-5-methyl-1-piperidyl]acetamide] |  | 5 to 50 | < 75 |  |  |  | < 100 | C (“C” indicates an IC50 ratio of less than 15 fold) | > 50 | 
